Assay results: publication PMC7352759, “S(+)-(2E)-N-(2-Hydroxypropyl)-3-Phenylprop-2-Enamide (KM-568): A Novel Cinnamamide Derivative with Anticonvulsant Activity in Animal Models of Seizures and Epilepsy” (International Journal of Molecular Sciences, 2020)

Assays:
[1] = Ames microplate format (MPF) assay, TA98; conditions: Salmonella typhimurium
From the text: (§1) The Ames microplate format (MPF) mutagenicity assay (Xenometrix, Allschwil, Switzerland) was used to test KM-568 mutagenicity. Growth, exposure, and indicator media, positive control chemicals, and four Salmonella typhimurium strains TA98, TA100, TA1535 and TA1537 were included in the kit. TA100 and TA1535 strains detect base substitution mutations, whereas TA98 and TA1537 indicate frameshift mutations. The strains of bacteria included in a kit are in compliance with the Organization for Economic Cooperation and Development (OECD) 471 Guideline for Testing of Chemicals.
(§2) The assay is a liquid microplate modification of the traditional Salmonella test. During the procedure, bacteria are exposed to different concentrations of a test compound for 90 min in a medium containing sufficient histidine to support cell divisions. Then, the cultures are diluted in a pH indicator medium lacking histidine and aliquoted into 48 wells of a 384-well plate. Within 2 days, bacteria that have undergone reversion to amino acid prototrophy will form colonies. Products of bacteria metabolism reduce pH of the medium, changing the color of wells from purple to yellow.
(§3) The test procedure provided by Xenometrix and described in detail elsewhere was followed. Bacterial strains were grown overnight (14–16 h) in exposure medium in a shaker incubator and then exposed to KM-568 in 24-well plates for 90 min at 37 °C with agitation. Final KM-568 concentrations in the assay were 0.1, 0.2, and 0.5 mM. After preincubation, the cultures were diluted in the indicator medium and the contents of each 24-well culture were transferred to 48 wells on a 384-well plate and incubated further for 48 h at 37 °C without agitation. After the exposure, the number of wells containing bacteria was scored for yellow wells. […] Pure DMSO was used as a negative control. All doses were performed in triplicate.
(§4) The fold increase of revertants relative to the solvent control was determined by dividing the mean number of positive wells at each dose by the solvent control at baseline. The solvent control at baseline was calculated as the mean number of positive wells in the solvent control plus one standard deviation (SD). When an increase of more than twofold relative to the baseline at more than one dose with a dose–response was observed, the sample was classified as positive, whereas when no response > 2 times the baseline and no dose–response was stated, the sample was classified as negative.

[2] = Ames microplate format (MPF) assay, TA1537; conditions: Salmonella typhimurium
From the text: as §1, §2, §3, §4

[3] = tested on: Salmonella typhimurium TA1535; experiment: Ames microplate format (MPF) assay, TA1535; conditions: TA1535, positive control at 100 µg/mL
From the text: as §1, §2, §3, §4

mice [4] = conditions: mice i.p.; cited from earlier work
mice [5] = conditions: mice i.p.; cited from earlier work; remark: listed apart in the source
rats = tested on: rats; design: method as in doi:10.2174/157018012798192982; conditions: rats p.o.; cited from earlier work

Row | SMILES | MES ED50 (mice [4]) [mg/kg] | scMET ED50 (mice [5]) [mg/kg] | other results
1 | O=[N+]([O-])c1ccc2c(c1)Cc1ccccc1-2 [2-NF, 2-nitrofluorene, reference compound] |  |  | fold induction at 90 min, 2 µg/mL [1]: 6.4
2 | Nc1c2ccccc2nc2ccccc12 [9-AAc, 9-aminoacridine, reference compound] |  |  | fold induction at 90 min, 15 µg/mL [2]: 48
3 | NNc1ccn([C@@H]2O[C@H](CO)[C@@H](O)[C@H]2O)c(=O)n1 [N4-ACT, N-4-aminocytidine, reference compound] |  |  | fold induction of the number of positive wells over baseline [3]: 14.7 fold
4 | O=C(/C=C/c1ccccc1)N1CCCC(O)C1 (stereo not drawn) [R,S-(2E)-1-(3-hydroxypiperidin-1-yl)-3-phenylprop-2-en-1-one] | 55.0 | 82.3 | 
5 | CC(O)CNC(=O)/C=C/c1ccc(Cl)cc1 (stereo not drawn) [R,S-(2E)-3-(4-chlorophenyl)-N-(2-hydroxypropyl)prop-2-enamide] | 55.6 | 102.2 | 
6 | CC(O)CNC(=O)/C=C/c1ccccc1 (stereo not drawn) [R,S-(2E)-N-(2-hydroxypropyl)-3-phenylprop-2-enamide] |  |  | MES (pharmacological parameter, ED50) (mice [4]): 47.1 mg/kg; MES (pharmacological parameter, ED50) (rats): 22.8 mg/kg; scMET (pharmacological parameter, ED50) (mice [5]): 77.1 mg/kg
7 | Cc1ccccc1/C=C/C(=O)N[C@@H](C)CO [S-(2E)-N-(1-hydroxypropan-2-yl)-3-(2-methylphenyl)prop-2-enamide] | 42.6 | 58.4 | 
